Experimental data taken from patent publication US20140179664A1, “Heterocyclyl Pyrimidine Analogues As JAK Inhibitors” (Cellzome Limited, priority 2011, published 2014).

What was measured:
JAK3 = target: T1, JAK3 (Homo sapiens, UniProt P52333); experiment: Kinobeads assay, JAK3; assay type: binding; settings: mixed Molt4/Ramos lysate, read-out: Inhibition values (IC50) JAK3
T1 construct: endogenous in cells; host or cells: Molt4 (ATCC CRL-1582) and Ramos (ATCC CRL-1596), mixed lysate 1:2
T1 sequence (P52333 1-1124): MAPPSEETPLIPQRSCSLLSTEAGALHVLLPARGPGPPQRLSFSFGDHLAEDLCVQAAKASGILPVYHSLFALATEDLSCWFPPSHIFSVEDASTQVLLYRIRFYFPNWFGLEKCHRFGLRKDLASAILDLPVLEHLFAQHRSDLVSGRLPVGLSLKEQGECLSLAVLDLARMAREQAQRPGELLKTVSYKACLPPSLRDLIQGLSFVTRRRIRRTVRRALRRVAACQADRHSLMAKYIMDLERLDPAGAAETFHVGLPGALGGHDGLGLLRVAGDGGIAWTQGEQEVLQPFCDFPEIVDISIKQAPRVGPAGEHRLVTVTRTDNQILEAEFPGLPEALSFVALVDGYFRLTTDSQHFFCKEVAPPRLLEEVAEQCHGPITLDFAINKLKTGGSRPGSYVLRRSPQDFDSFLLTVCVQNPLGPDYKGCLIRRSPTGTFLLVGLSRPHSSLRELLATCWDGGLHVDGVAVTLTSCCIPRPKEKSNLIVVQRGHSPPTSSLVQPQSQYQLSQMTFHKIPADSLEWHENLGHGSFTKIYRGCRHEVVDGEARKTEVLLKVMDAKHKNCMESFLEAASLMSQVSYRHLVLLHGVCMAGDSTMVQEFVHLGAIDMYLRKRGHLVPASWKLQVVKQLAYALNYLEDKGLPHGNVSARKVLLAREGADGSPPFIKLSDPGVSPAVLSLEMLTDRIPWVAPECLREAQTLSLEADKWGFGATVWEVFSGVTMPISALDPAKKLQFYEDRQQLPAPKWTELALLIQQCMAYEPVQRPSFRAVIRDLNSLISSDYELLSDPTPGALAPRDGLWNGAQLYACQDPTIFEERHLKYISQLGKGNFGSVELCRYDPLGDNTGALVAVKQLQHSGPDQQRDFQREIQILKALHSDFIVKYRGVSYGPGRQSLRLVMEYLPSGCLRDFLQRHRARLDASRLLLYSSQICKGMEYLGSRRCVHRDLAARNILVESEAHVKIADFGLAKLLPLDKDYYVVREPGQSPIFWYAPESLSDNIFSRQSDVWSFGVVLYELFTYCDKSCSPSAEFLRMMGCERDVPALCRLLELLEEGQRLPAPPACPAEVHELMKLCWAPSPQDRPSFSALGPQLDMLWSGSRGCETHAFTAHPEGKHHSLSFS
Method: (§1) The compounds of the present invention as described in the previous examples were tested in a Kinobeads™ assay as described for ZAP-70 (WO-A 2007/137867). Briefly, test compounds (at various concentrations) and the affinity matrix with the immobilized aminopyrido-pyrimidine ligand 24 were added to cell lysate aliquots and allowed to bind to the proteins in the lysate sample. After the incubation time the beads with captured proteins were separated from the lysate. Bound proteins were then eluted and the presence of JAK1, JAK2, JAK3 and TYK2 was detected and quantified using specific antibodies in a dot blot procedure and the Odyssey infrared detection system. Dose response curves for individual kinases were generated and IC50 values calculated. Kinobeads™ assays for ZAP-70 (WO-A 2007/137867) and for kinase selectivity profiling (WO-A 2006/134056) have been previously described.
(§2) The affinity matrix was washed two times with 15 mL of lx DP buffer containing 0.2% NP40 (IGEPAL® CA-630, Sigma, #13021) and then resuspended in 1×DP buffer containing 0.2% NP40 (3% beads slurry).
(§3) 5×DP buffer: 250 mM Tris-HCl pH 7.4, 25% Glycerol, 7.5 mM MgCl2, 750 mM NaCl, 5 mM Na3VO4; filter the 5×DP buffer through a 0.22 μm filter and store in aliquots at −80° C. The 5×DP buffer is diluted with H2O to 1×DP buffer containing 1 mM DTT and 25 mM NaF.
(§4) Stock solutions of test compounds were prepared in DMSO. In a 96 well plate […] solution of diluted test compounds at 5 mM in DMSO were prepared. Starting with this solution a 1:3 dilution series (9 steps) was prepared. For control experiments (no test compound) a buffer containing 2% DMSO was used.
(§5) Molt4 cells (ATCC catalogue number CRL-1582) and Ramos cells (ATCC catalogue number CRL-1596) were grown in 1 L Spinner flasks (Integra Biosciences, #182101) in suspension in RPMI 1640 medium (Invitrogen, #21875-034) supplemented with 10% Fetal Bovine Serum (Invitrogen) at a density between 0.15×10^6 and 1.2×10^6 cells/mL. Cells were harvested by centrifugation, washed once with 1×PBS buffer (Invitrogen, #14190-094) and cell pellets were frozen in liquid nitrogen and subsequently stored at −80° C. Cells were homogenized in a Potter S homogenizer in lysis buffer: 50 mM Tris-HCl, 0.8% NP40, 5% glycerol, 150 mM NaCl, 1.5 mM MgCl2, 25 mM NaF, 1 mM sodium vanadate, 1 mM DTT, pH 7.5. One complete EDTA-free tablet (protease inhibitor cocktail, Roche Diagnostics, 1873580) per 25 mL buffer was added. The material was dounced 10 times using a mechanized POTTER S, transferred to 50 mL falcon tubes, incubated for 30 minutes on ice and spun down for 10 minutes at 20,000 g at 4° C. (10,000 rpm in Sorvall SLA600, precooled). The supernatant was transferred to an ultracentrifuge (UZ)-polycarbonate tube (Beckmann, 355654) and spun for 1 hour at 100.000 g at 4° C. (33.500 rpm in Ti50.2, precooled). The supernatant was transferred again to a fresh 50 mL falcon tube, the protein concentration was determined by a Bradford assay (BioRad) and samples containing 50 mg of protein per aliquot were prepared. The samples were immediately used for experiments or frozen in liquid nitrogen and stored frozen at −80° C.
(§6) Cell lysate (approximately 50 mg protein per plate) was thawed in a water bath at room temperature and then stored on ice. To the thawed cell lysate 1×DP 0.8% NP40 buffer containing protease inhibitors (1 tablet for 25 mL buffer; EDTA-free protease inhibitor cocktail; Roche Diagnostics 1873580) was added in order to reach a final protein concentration of 10 mg/mL total protein. The diluted cell lysate was stored on ice. Mixed Molt4/Ramos lysate was prepared by combining one volume of Molt4 lysate and two volumes of Ramos lysate (ratio 1:2).
(§7) To a 96 well filter plate (Multiscreen HTS, BV Filter Plates, Millipore #MSBVN1250) were added per well: 100 μL affinity matrix (3% beads slurry), […], of compound solution, and 50 μL of diluted lysate. […]

JAK2 = target: T2, JAK2 (Homo sapiens, UniProt O60674); experiment: Kinobeads assay, JAK2; assay type: binding; settings: mixed Molt4/Ramos lysate, read-out: Inhibition values (IC50) JAK2
T2 construct: endogenous in cells; host or cells: Molt4 (ATCC CRL-1582) and Ramos (ATCC CRL-1596), mixed lysate 1:2
T2 sequence (O60674 whole entry): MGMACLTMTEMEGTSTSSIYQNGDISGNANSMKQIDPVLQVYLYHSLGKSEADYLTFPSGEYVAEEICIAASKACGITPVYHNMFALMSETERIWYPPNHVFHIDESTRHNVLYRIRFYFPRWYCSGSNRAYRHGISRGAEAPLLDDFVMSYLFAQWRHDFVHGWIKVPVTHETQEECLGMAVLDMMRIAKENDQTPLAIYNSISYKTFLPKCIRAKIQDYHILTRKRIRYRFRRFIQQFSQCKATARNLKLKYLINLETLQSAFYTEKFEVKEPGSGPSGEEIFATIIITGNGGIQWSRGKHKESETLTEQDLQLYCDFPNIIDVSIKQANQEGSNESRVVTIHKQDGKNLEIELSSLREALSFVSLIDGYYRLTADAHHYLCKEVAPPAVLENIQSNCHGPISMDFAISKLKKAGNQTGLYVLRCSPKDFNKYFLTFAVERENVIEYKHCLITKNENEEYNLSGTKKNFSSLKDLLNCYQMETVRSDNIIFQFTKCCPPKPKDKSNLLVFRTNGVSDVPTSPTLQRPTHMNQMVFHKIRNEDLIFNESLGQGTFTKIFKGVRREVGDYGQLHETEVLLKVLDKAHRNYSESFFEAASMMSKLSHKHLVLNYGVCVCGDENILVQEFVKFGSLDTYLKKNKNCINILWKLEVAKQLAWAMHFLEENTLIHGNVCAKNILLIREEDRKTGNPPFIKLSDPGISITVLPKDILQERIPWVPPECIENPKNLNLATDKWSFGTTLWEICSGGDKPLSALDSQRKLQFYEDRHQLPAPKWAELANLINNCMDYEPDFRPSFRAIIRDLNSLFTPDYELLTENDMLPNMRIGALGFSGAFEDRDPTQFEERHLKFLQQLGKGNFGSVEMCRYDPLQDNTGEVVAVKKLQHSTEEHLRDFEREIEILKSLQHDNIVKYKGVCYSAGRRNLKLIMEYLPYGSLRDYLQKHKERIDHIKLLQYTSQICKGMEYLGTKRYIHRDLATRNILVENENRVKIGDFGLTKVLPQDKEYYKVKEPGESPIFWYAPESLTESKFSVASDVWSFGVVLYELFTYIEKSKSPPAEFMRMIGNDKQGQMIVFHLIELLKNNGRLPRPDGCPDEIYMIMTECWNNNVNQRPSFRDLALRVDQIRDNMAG
Method: as §1, §2, §3, §4, §5, §6, §7

Row | SMILES | IC50 (JAK3) [nM] | IC50 (JAK2) [nM]
1 | NC(=O)Cn1cc(Nc2ncc(Cl)c(N[C@H](CO)c3cc(F)ccc3F)n2)cn1 [Compound 140] | < 100 | 100 to 1000
2 | Cn1cc(Nc2ncc(Cl)c(N[C@H](CO)c3cc(F)cc(-c4cnn(C)c4)c3)n2)cn1 [Compound 137] | 100 to 1000 | 1000 to 10000
3 | OCCn1cc(Nc2ncc(Cl)c(N[C@H](CO)c3cc(F)cc(F)c3)n2)cn1 [Compound 143] | < 100 | 100 to 1000
4 | CCC(Nc1nc(Nc2cnn(C)c2)ncc1Cl)c1ccccc1F (stereo not drawn) [Compound 125] | 100 to 1000 | 1000 to 10000
5 | O=C(Cn1cc(Nc2ncc(F)c(N[C@H](CO)c3ccccc3)n2)cn1)N1CCOCC1 [Compound 112] | < 100 | ≥ 10000
6 | CNC(=O)Cn1cc(Nc2ncc(Cl)c(N[C@H](CO)c3cccc(OC)c3)n2)cn1 [Compound 99] | < 100 | ≥ 10000
7 | OCCn1cc(Nc2ncc(Cl)c(NC(CO)c3cc(F)cc(F)c3)n2)cn1 (stereo not drawn) [Compound 122] | < 100 | 100 to 1000
8 | CNC(=O)Cn1cc(Nc2ncc(Cl)c(NC(CO)c3ccccc3C(F)(F)F)n2)cn1 (stereo not drawn) [Compound 131] | 100 to 1000 | 1000 to 10000
9 | OCCn1cc(Nc2ncc(F)c(N[C@H](CO)c3cc(F)cc(F)c3)n2)cn1 [Compound 159] | < 100 | 1000 to 10000
10 | CNC(=O)Cn1cc(Nc2ncc(Cl)c(NC(CO)c3cc(F)cc(F)c3)n2)cn1 (stereo not drawn) [Compound 123] | < 100 | 1000 to 10000
11 | CC[C@@H](Nc1nc(Nc2cnn(C)c2)ncc1Cl)c1ccccc1 [Compound 5] | 100 to 1000 | 1000 to 10000
12 | COc1cccc([C@@H](CO)Nc2nc(Nc3cnn(C(C)C)c3)ncc2Cl)c1 [Compound 106] | 100 to 1000 | 1000 to 10000
13 | COc1cccc([C@@H](CO)Nc2nc(Nc3cnn(CC(=O)N4CCOCC4)c3)ncc2Cl)c1 [Compound 102] | < 100 | ≥ 10000
14 | CC(C)NC(=O)Cn1cc(Nc2ncc(Cl)c(N[C@H](CO)c3ccccc3F)n2)cn1 [Compound 115] | < 100 | 1000 to 10000
15 | Cc1cnc(Nc2cnn(C)c2)nc1N[C@H](CO)c1cc(F)cc(F)c1 [Compound 164] | 100 to 1000 | 1000 to 10000
16 | Cc1cnc(Nc2cnn(CC(=O)N(C)C)c2)nc1N[C@H](CO)c1ccccc1 [Compound 134] | < 100 | 1000 to 10000
17 | Cn1cc(Nc2ncc(Cl)c(N[C@H](CO)c3cccc(N4CCOCC4=O)c3)n2)cn1 [Compound 138] | < 100 | ≥ 10000
18 | NC(=O)Cn1cc(Nc2ncc(F)c(N[C@H](CO)c3cc(F)cc(F)c3)n2)cn1 [Compound 160] | < 100 | 1000 to 10000
19 | NC(=O)Cn1cc(Nc2ncc(Cl)c(NC(CO)c3ccccc3Cl)n2)cn1 (stereo not drawn) [Compound 118] | < 100 | 1000 to 10000
20 | Cn1cc(Nc2ncc(Cl)c(N[C@H](CO)c3cccc(-c4cnn(C)c4)c3)n2)cn1 [Compound 136] | 100 to 1000 | ≥ 10000
21 | OCCn1cc(Nc2ncc(Cl)c(N[C@H](CO)c3ccccc3)n2)cn1 [Compound 9] | < 100 | 1000 to 10000
22 | O=C(NCC(F)(F)F)C(Nc1nc(Nc2cnn(CCO)c2)ncc1Cl)c1ccccc1F (stereo not drawn) [Compound 128] | 100 to 1000 | ≥ 10000
23 | Cn1cc(Nc2ncc(Cl)c(NC(C)(CO)c3ccccc3)n2)cn1 (stereo not drawn) [Compound 7] | 100 to 1000 | ≥ 10000
24 | C[C@@H](CO)NC(=O)Cn1cc(Nc2ncc(Cl)c(N[C@H](CO)c3ccccc3F)n2)cn1 [Compound 116] | < 100 | 1000 to 10000
25 | CNC(=O)Cn1cc(Nc2ncc(Cl)c(NC(CO)c3cc(F)ccc3F)n2)cn1 (stereo not drawn) [Compound 130] | < 100 | 100 to 1000
26 | CC(C)n1cc(Nc2ncc(Cl)c(N[C@H](CO)c3cccnc3)n2)cn1 [Compound 107] | < 100 | 1000 to 10000
27 | CNC(=O)Cn1cc(Nc2ncc(Cl)c(N[C@H](CO)c3ccccc3OC)n2)cn1 [Compound 98] | < 100 | 1000 to 10000
